What all share (experiment): NCI tumour cell line growth inhibition, 48 h
Assay [1] deals with XF 498 CNS.
The subject of assay [2] is DMS 273 small cell lung.
Assay [3] concerns MDA-N.
Assay [4] relates to SN12K1 renal.
For assay [5], the system named is KM20L2 colon.
Assay [6] concerns HOP-18 NSCLC.
For assay [7], the system named is DLD-1 colon.
The subject of assay [8] is DMS 114 small cell lung.
Assay [9] has as its system RXF-631 renal.
Assay [10] deals with LXFL 529 NSCLC.

Values joined by “and” are separate entries in the source; they are usually repeats but may differ in a detail not shown here. Equal values may be shown once.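 Each compound was tested at five concentrations against cells in 96-well plates for 48 hours. The concentration for 50% growth inhibition is given as GI50. TGI denotes the concentration required for complete inhibition of growth.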

Consider `CC1=CCCC2C1(C)CCC(C)C2(C)Cc1cc(O)ccc1O` (stereo unspecified), for which the TGI in assay [1] was 21.7 µM; in assay [2], 20.2 µM; in assay [3] it was 25.3 µM; in [4], 13.5 µM; in assay [5] it was 27.9 µM; in assay [6] it was 36.2 µM. The TGI in [7] worked out at 22.2 µM; in assay [8], 13.3 µM.
With `O=C(O)COc1ccc(C(=O)/C(SS/C(C(=O)c2ccc(OCC(=O)O)c(Cl)c2Cl)=C2\C=C(c3ccc(Cl)cc3)SS2)=C2/C=C(c3ccc(Cl)cc3)SS2)c(Cl)c1Cl`, the TGI was more than 100 µM in assay [9]; 32.7 µM in assay [2]; 54.5 µM in assay [5]; 23 µM in [6]; 14.4 µM in [10]; 24.6 µM in assay [7].
In assay [3], `CC1=NN(c2ccc(S(=O)(=O)O)cc2)C(=O)/C1=C/c1ccc(Cl)cc1` gave a TGI of more than 100 µM.
As for `CCCCNC(=O)C1C(=O)N(CCCC)C(=O)/C1=N\N` (stereo unspecified), the TGI in assay [1], in assay [9], in [2], in [5], in [6] and in assay [10] was more than 100 µM each time. The compound further displayed a TGI in [8] of more than 100 µM.
Regarding `N#CCCCCCOCCOCCOCCOCCOCCCCCC#N`, the TGI in assay [9], in assay [2], in assay [5], in [6], in assay [10] and in assay [7] was more than 100 µM each time. In assay [8], the TGI is more than 100 µM.
For `Cc1nn2c(nc1=O)sc1ccc3ccccc3c12`, the TGI in [1], in assay [2], in [5], in assay [6], in assay [10] and in [7] was more than 100 µM each time. The compound also showed a TGI in assay [8] of more than 100 µM.
`CCOC(=O)C(N=C(c1ccccc1)c1ccccc1)N(C(=O)OC(C)(C)C)C(=O)OC(C)(C)C` (stereo unspecified): the TGI in [5], in [10] and in assay [8] was more than 100 µM each time.
Consider `O=C1NC2C(=CC(O)C(O)C2O)c2cc3c(cc21)OCO3` (stereo unspecified), for which the GI50 was 0.207 µM and 0.416 µM in assay [1]; 0.23 µM in assay [9]; 0.604 µM and 0.301 µM in assay [2]; 0.34 µM and 0.261 µM in assay [5]; 0.545 µM and 0.392 µM in assay [6]; 0.313 µM in assay [10]. Besides, the GI50 was 0.325 µM and 0.217 µM in assay [7]; 0.335 µM and 0.321 µM in assay [8]. For the same compound, the TGI in assay [1] was 0.93 µM and 1.81 µM and 0.644 µM; in assay [9], 3.13 µM; in assay [2], 1.99 µM and 2.07 µM; in assay [3], 1.22 µM; in assay [4] it was 1.8 µM; in assay [5] it was 5.54 µM and 5.32 µM. The TGI is 4.33 µM and 13.1 µM in [6]; 3.66 µM in assay [10]; 2.11 µM in assay [7]; 3.84 µM and 2.17 µM in assay [8].
Turning to `COc1cc2c(cc1OC)CC(=O)Nc1cc(OC)c(OC)cc1CC2`, the TGI in assay [1], in assay [9], in [2], in assay [5], in assay [6] and in [10] was more than 100 µM each time. Further, the figures for the TGI in [7] and in assay [8] were more than 100 µM and 91.9 µM, respectively.
For the compound `CC[C@@]1(O)C(=O)OCc2c1cc1n(c2=O)Cc2cc3cccc([N+](=O)[O-])c3nc2-1`, the GI50 is 3.12 µM in [1]; 0.175 µM in [2]; 3.24 µM in [5]; 1.85 µM in assay [6]; 14.2 µM in [10]; 24.6 µM in assay [7]. Besides, in [8], the GI50 was 0.684 µM. Moreover, the TGI was 34.6 µM in assay [1]; 1.67 µM in assay [2]; 41.7 µM in assay [5]; more than 100 µM in assay [6]; more than 100 µM in assay [10]; more than 100 µM in assay [7]. This compound also came in with a TGI in [8] of 38.3 µM.
`CC(N)(/C=C/c1ccccc1)C(=O)O` (stereo unspecified) had a TGI in assay [3] of more than 100 µM.
Still for that read-out and setting: the figure for `c1ccc2cc(NCNc3ccc4ccccc4c3)ccc2c1` is 18.6 µM.
Consider `Nc1nc(N)c(-c2ccccc2)c(C(=O)Nc2ccccc2)n1`, for which the TGI in assay [1], in assay [5], in assay [6] and in assay [7] was more than 100 µM in each case.
`COc1ccc(NC(=O)CC/C(CC(=O)c2ccco2)=N/NC(N)=S)cc1`: the TGI in [1], in assay [9], in [2], in [5], in [6] and in assay [10] was more than 100 µM in each case. Moreover, the TGI in [7] and in [8] was more than 100 µM throughout.
Regarding `O=c1c2ccccc2nc(/C=C(\O)c2ccncc2)n1-c1ccc(Cl)cc1`, the TGI in assay [1] is 66.4 µM; in assay [5], more than 100 µM; in assay [10] it was more than 100 µM; in [7], more than 100 µM; in assay [8] it was more than 100 µM.
In the case of `COc1cc(-c2oc3c(OC)cc(OC)c(O)c3c(=O)c2OC)cc(OC)c1OC`, the TGI in assay [3] is more than 100 µM.
The same measure, in the same setting: the same measure for `N=N/C(=C\c1c(O)[nH]c2ccccc12)c1ccccc1`: 13.7 µM; for `Cc1ccc(NC(=O)c2cc3ccccc3c(N=Nc3cc(S(=O)(=O)O)ccc3O)c2O)c(C)c1`: more than 100 µM.

For the origin of these results see PubChem BioAssay (NCI).
